Measurements as given in PubChem BioAssay AID2060889 (Molecular Pharmacology Branch, DTP, NCI, 2025).

Tested on: LG0567-F671-PDC complex spheroids viability
Assay: Anticancer human tumor LG0567-F671-PDC patient-derived lung adenocarcinoma cell line growth inhibition [RAS]
Settings: for IC50: curve of first compound; for viability, T/C: stronger effect = lower value
Procedure, shortened: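 Multi-cell-type spheroids: tumor cells plus HUVEC endothelial cells and mesenchymal stem cells. RAS-pathway inhibitors were combined with targeted agents, each dosed in half-log steps down from clinical Cmax, or from 10 microM when Cmax was unknown.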

[1] = second compound 0.0316 µM, first compound 0.0316 µM
[2] = second compound 0.0316 µM, first compound 0.1 µM
[3] = second compound 0.0316 µM, first compound 0.316 µM
[4] = second compound 0.0316 µM, first compound 1 µM
[5] = second compound 0.1 µM, first compound 0.0316 µM
[6] = second compound 0.1 µM, first compound 0.1 µM
[7] = second compound 0.1 µM, first compound 0.316 µM
[8] = second compound 0.1 µM, first compound 1 µM
[9] = second compound 0.316 µM, first compound 0.0316 µM
[10] = second compound 0.316 µM, first compound 0.1 µM
[11] = second compound 0.316 µM, first compound 0.316 µM
[12] = second compound 0.316 µM, first compound 1 µM
[13] = second compound 1 µM, first compound 0.0316 µM
[14] = second compound 1 µM, first compound 0.1 µM
[15] = second compound 1 µM, first compound 0.316 µM
[16] = second compound 1 µM, first compound 1 µM
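Further: spheroids exposed to compound for seven days before readout.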
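Wherever IC50 is given: luminescence signal used as a proxy for viable cells.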

In the case of `CC(C)n1nc(-c2ccc3oc(N)nc3c2)c2c(N)ncnc21` + CCn1c(-c2cc(N3CCN(C)CC3)cnc2C(C)OC)c2c3cc(ccc31)-c1csc(n1)CC(NC(=O)C1CC1C)C(=O)N1CCCC(N1)C(=O)OCC(C)(C)C2, the IC50 (second compound 0.000949 µM) is reported as < 0.316 nM, the IC50 (second compound 0.003 µM) is reported as < 0.316 nM and the IC50 (second compound 0.00949 µM) is reported as < 0.316 nM. For the same compound, the IC50 (second compound 0.03 µM) was < 0.316 nM, the IC50 (second compound 0.0949 µM) was < 0.316 nM and the IC50 (second compound 0.3 µM) was < 0.316 nM. It also gave a viability, T/C (second compound 0.000949 µM, first compound 0.000316 µM) of 24.8%, a viability, T/C (second compound 0.000949 µM, first compound 0.001 µM) of 23.1% and a viability, T/C (second compound 0.000949 µM, first compound 0.00316 µM) of 18.8%. The viability, T/C (second compound 0.000949 µM, first compound 0.01 µM) was 15.1%, the viability, T/C (second compound 0.000949 µM, first compound 0.0316 µM) was 11.8% and the viability, T/C (second compound 0.000949 µM, first compound 0.1 µM) was 7.87%. It also gave a viability, T/C (second compound 0.003 µM, first compound 0.000316 µM) of 12.8%, a viability, T/C (second compound 0.003 µM, first compound 0.001 µM) of 11.2% and a viability, T/C (second compound 0.003 µM, first compound 0.00316 µM) of 8.44%. It also gave a viability, T/C (second compound 0.003 µM, first compound 0.01 µM) of 6.54%, a viability, T/C (second compound 0.003 µM, first compound 0.0316 µM) of 4.49% and a viability, T/C (second compound 0.003 µM, first compound 0.1 µM) of 3.31%. The viability, T/C (second compound 0.00949 µM, first compound 0.000316 µM) was 5.79%, the viability, T/C (second compound 0.00949 µM, first compound 0.001 µM) was 5.54% and the viability, T/C (second compound 0.00949 µM, first compound 0.00316 µM) was 4.34%. For the same compound, the viability, T/C (second compound 0.00949 µM, first compound 0.01 µM) was 5.27%, the viability, T/C (second compound 0.00949 µM, first compound 0.0316 µM) was 2.11% and the viability, T/C (second compound 0.00949 µM, first compound 0.1 µM) was 1.59%. It also gave a viability, T/C (second compound 0.03 µM, first compound 0.000316 µM) of 3.45%, a viability, T/C (second compound 0.03 µM, first compound 0.001 µM) of 3.53% and a viability, T/C (second compound 0.03 µM, first compound 0.00316 µM) of 2.88%. The viability, T/C (second compound 0.03 µM, first compound 0.01 µM) was 2%, the viability, T/C (second compound 0.03 µM, first compound 0.0316 µM) was 1.3% and the viability, T/C (second compound 0.03 µM, first compound 0.1 µM) was 1.03%. The viability, T/C (second compound 0.0949 µM, first compound 0.000316 µM) was 3.67%, the viability, T/C (second compound 0.0949 µM, first compound 0.001 µM) was 2.67% and the viability, T/C (second compound 0.0949 µM, first compound 0.00316 µM) was 2.18%. For the same compound, the viability, T/C (second compound 0.0949 µM, first compound 0.01 µM) was 1.68%, the viability, T/C (second compound 0.0949 µM, first compound 0.0316 µM) was 1.09% and the viability, T/C (second compound 0.0949 µM, first compound 0.1 µM) was 0.8%. It also gave a viability, T/C (second compound 0.3 µM, first compound 0.000316 µM) of 2.77%, a viability, T/C (second compound 0.3 µM, first compound 0.001 µM) of 2.43% and a viability, T/C (second compound 0.3 µM, first compound 0.00316 µM) of 1.81%. It also gave a viability, T/C (second compound 0.3 µM, first compound 0.01 µM) of 1.5%, a viability, T/C (second compound 0.3 µM, first compound 0.0316 µM) of 1.12% and a viability, T/C (second compound 0.3 µM, first compound 0.1 µM) of 0.62%.

`CCC(CC)c1cc(NC2CCC(N)C2)n2nccc2n1` (stereo unspecified) + C=CC(=O)N1CCN(c2nc(OCC3CCCN3C)nc3c(F)c(-c4nc(N)cc(C)c4C(F)(F)F)c(Cl)cc23)C(C)C1 was tested, and the IC50 (second compound 0.00316 µM) was < 31.6 nM, the IC50 (second compound 0.01 µM) was < 31.6 nM and the IC50 (second compound 0.0316 µM) was < 31.6 nM. For the same compound, the IC50 (second compound 0.1 µM) was < 31.6 nM, the IC50 (second compound 0.316 µM) was < 31.6 nM and the IC50 (second compound 1 µM) was < 31.6 nM. The viability, T/C (second compound 0.00316 µM, first compound 0.0316 µM) was 18.7%, the viability, T/C (second compound 0.00316 µM, first compound 0.1 µM) was 16.5% and the viability, T/C (second compound 0.00316 µM, first compound 0.316 µM) was 17.8%. The viability, T/C (second compound 0.00316 µM, first compound 1 µM) was 15.8%, the viability, T/C (second compound 0.00316 µM, first compound 3.16 µM) was 3.58% and the viability, T/C (second compound 0.00316 µM, first compound 10 µM) was 0.33%. It also gave a viability, T/C (second compound 0.01 µM, first compound 0.0316 µM) of 12.8%, a viability, T/C (second compound 0.01 µM, first compound 0.1 µM) of 13.4% and a viability, T/C (second compound 0.01 µM, first compound 0.316 µM) of 15.6%. It also gave a viability, T/C (second compound 0.01 µM, first compound 1 µM) of 12.7%, a viability, T/C (second compound 0.01 µM, first compound 3.16 µM) of 3.96% and a viability, T/C (second compound 0.01 µM, first compound 10 µM) of 0.45%. For the same compound, the viability, T/C [1] was 11.5%, the viability, T/C [2] was 11.6% and the viability, T/C [3] was 12.2%. For the same compound, the viability, T/C [4] was 11.2%, the viability, T/C (second compound 0.0316 µM, first compound 3.16 µM) was 3.67% and the viability, T/C (second compound 0.0316 µM, first compound 10 µM) was 0.43%. It also gave a viability, T/C [5] of 11.6%, a viability, T/C [6] of 16.4% and a viability, T/C [7] of 12.2%. The viability, T/C [8] was 10.4%, the viability, T/C (second compound 0.1 µM, first compound 3.16 µM) was 3.67% and the viability, T/C (second compound 0.1 µM, first compound 10 µM) was 0.68%. It also gave a viability, T/C [9] of 11.4%, a viability, T/C [10] of 11.2% and a viability, T/C [11] of 12.8%. It also gave a viability, T/C [12] of 11.4%, a viability, T/C (second compound 0.316 µM, first compound 3.16 µM) of 4.66% and a viability, T/C (second compound 0.316 µM, first compound 10 µM) of 0.75%. For the same compound, the viability, T/C [13] was 14.2%, the viability, T/C [14] was 14.3% and the viability, T/C [15] was 14.3%. For the same compound, the viability, T/C [16] was 12.2%, the viability, T/C (second compound 1 µM, first compound 3.16 µM) was 4.35% and the viability, T/C (second compound 1 µM, first compound 10 µM) was 0.62%.

`C=CC(=O)Nc1cc(Nc2nccc(-c3cn(C)c4ccccc34)n2)c(OC)cc1N(C)CCN(C)C` + C#Cc1c(F)ccc2cc(O)cc(-c3ncc4c(N5CC6CCC(C5)N6)nc(OCC56CCCN5CC(F)C6)nc4c3F)c12 gave an IC50 (second compound 0.0316 µM) of 120 nM, an IC50 (second compound 0.1 µM) of 84.3 nM and an IC50 (second compound 0.316 µM) of 8.15 nM. For the same compound, the IC50 (second compound 1 µM) was < 3.16 nM, the IC50 (second compound 3.16 µM) was < 3.16 nM and the IC50 (second compound 10 µM) was < 3.16 nM. For the same compound, the viability, T/C (second compound 0.0316 µM, first compound 0.00316 µM) was 88.7%, the viability, T/C (second compound 0.0316 µM, first compound 0.01 µM) was 80.7% and the viability, T/C [1] was 67.4%. The viability, T/C [2] was 54.1%, the viability, T/C [3] was 34.5% and the viability, T/C [4] was 19.1%. For the same compound, the viability, T/C (second compound 0.1 µM, first compound 0.00316 µM) was 79.8%, the viability, T/C (second compound 0.1 µM, first compound 0.01 µM) was 74.8% and the viability, T/C [5] was 66.8%. It also gave a viability, T/C [6] of 47.1%, a viability, T/C [7] of 27% and a viability, T/C [8] of 16.2%. It also gave a viability, T/C (second compound 0.316 µM, first compound 0.00316 µM) of 53.4%, a viability, T/C (second compound 0.316 µM, first compound 0.01 µM) of 49.3% and a viability, T/C [9] of 42.8%. For the same compound, the viability, T/C [10] was 28.4%, the viability, T/C [11] was 22.1% and the viability, T/C [12] was 11.3%. The viability, T/C (second compound 1 µM, first compound 0.00316 µM) was 38.1%, the viability, T/C (second compound 1 µM, first compound 0.01 µM) was 32.8% and the viability, T/C [13] was 28.9%. For the same compound, the viability, T/C [14] was 20.4%, the viability, T/C [15] was 11.9% and the viability, T/C [16] was 6.5%. The viability, T/C (second compound 3.16 µM, first compound 0.00316 µM) was 20.5%, the viability, T/C (second compound 3.16 µM, first compound 0.01 µM) was 17% and the viability, T/C (second compound 3.16 µM, first compound 0.0316 µM) was 16.2%. It also gave a viability, T/C (second compound 3.16 µM, first compound 0.1 µM) of 12.2%, a viability, T/C (second compound 3.16 µM, first compound 0.316 µM) of 8.15% and a viability, T/C (second compound 3.16 µM, first compound 1 µM) of 4.09%. It also gave a viability, T/C (second compound 10 µM, first compound 0.00316 µM) of 13.5%, a viability, T/C (second compound 10 µM, first compound 0.01 µM) of 10.9% and a viability, T/C (second compound 10 µM, first compound 0.0316 µM) of 9.25%. It also gave a viability, T/C (second compound 10 µM, first compound 0.1 µM) of 6.54%, a viability, T/C (second compound 10 µM, first compound 0.316 µM) of 4.27% and a viability, T/C (second compound 10 µM, first compound 1 µM) of 2.83%.
